Data published in ChEMBL document CHEMBL1201862, “PubChem BioAssay data set” (2004).
Activity calls are given as the source filed them.

How the values were obtained:
Coagulation factor XII = target: T1, Coagulation factor XII (Homo sapiens, UniProt P00748); experiment: Factor XIIa Dose Response Confirmation from Single Well HTS. [Related pubchem assays (depositor defined):AID701]; format: functional
T1 sequence (P00748 whole entry): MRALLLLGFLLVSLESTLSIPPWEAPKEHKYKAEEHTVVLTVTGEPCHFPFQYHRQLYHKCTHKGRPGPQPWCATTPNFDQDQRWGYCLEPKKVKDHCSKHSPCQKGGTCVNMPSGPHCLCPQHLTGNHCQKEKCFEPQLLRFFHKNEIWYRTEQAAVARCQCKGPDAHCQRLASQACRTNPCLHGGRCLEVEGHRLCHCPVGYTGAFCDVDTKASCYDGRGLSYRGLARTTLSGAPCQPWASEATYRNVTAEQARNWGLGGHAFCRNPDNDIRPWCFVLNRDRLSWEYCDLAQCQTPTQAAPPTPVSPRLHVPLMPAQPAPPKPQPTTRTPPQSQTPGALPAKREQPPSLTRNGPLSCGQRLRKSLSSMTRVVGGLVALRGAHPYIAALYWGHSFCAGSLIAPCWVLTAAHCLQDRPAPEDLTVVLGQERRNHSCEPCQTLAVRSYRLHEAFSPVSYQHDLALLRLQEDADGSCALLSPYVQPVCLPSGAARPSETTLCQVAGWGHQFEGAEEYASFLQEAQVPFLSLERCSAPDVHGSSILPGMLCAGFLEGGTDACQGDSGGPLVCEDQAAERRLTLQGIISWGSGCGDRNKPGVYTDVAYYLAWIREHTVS

[1] = target: Mitogen-activated protein kinase 10 (Homo sapiens, UniProt P53779); experiment: Dose response biochemical screening assay for inhibitors of c-Jun N-Terminal Kinase 3 (JNK3). [Related pubchem assays: 746 ]
Mitogen-activated protein kinase 10, sequence (P53779 whole entry): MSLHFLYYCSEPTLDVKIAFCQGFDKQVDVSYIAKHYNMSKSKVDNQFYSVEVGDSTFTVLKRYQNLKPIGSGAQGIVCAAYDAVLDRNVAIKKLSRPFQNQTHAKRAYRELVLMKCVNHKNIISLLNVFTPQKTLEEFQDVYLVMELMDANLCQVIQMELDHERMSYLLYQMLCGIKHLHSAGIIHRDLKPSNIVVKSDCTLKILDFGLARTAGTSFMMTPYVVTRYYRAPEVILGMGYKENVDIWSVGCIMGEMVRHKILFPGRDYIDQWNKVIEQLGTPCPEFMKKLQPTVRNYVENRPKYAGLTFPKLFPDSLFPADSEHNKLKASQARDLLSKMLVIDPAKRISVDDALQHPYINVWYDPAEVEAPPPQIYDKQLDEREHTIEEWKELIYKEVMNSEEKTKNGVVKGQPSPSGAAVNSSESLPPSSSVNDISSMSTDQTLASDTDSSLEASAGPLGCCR

[2] = general mammalian cell viability loss – activator set, cherry-pick, cytotoxicity control for miR-122 modulator project, dose response (AID 720690); format: functional, cell-based;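 note: HEK293T human cells scored for general mammalian cytotoxicity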
[3] = activation of miR-122 Renilla sensor silencing – cell-based, Huh7 psiCHECK-miR122, Renilla luciferase, cherry-picked, dose response (AID 651956); format: functional;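 note: huh7 hepatoma cells stably carrying a psiCHECK-2 miR-122 sensor plasmid; renilla luciferase signal reporting endogenous miR-122 activity after 48 h compound exposure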
cells [4] = format: functional, cell-based
cells [5] = format: functional, cell-based; remark: listed apart in the source
[6] = HEK-293T cell viability reduction – luminescence, B-cell screen hits, cytotoxicity control for BCR NF-kB inhibitor project, dose response (AID 489021); format: functional, cell-based;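 note: HEK-293T cells carrying an NF-kB luciferase reporter; cells exposed to compound for about 14 hours before viability readout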
[7] = target: Voltage-dependent T-type calcium channel subunit alpha-1H (Homo sapiens, UniProt O95180); format: functional;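 note: channel activity triggered by adding a high calcium stimulation buffer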
[8] = target: G-protein coupled receptor 55 (Homo sapiens, UniProt Q9Y2T6); experiment: inhibition of LPI-stimulated GPR55 beta-arrestin translocation – imaging, U2OS, beta-arrestin-GFP, LPI agonist, primary screen (AID 2013); format: functional;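 note: antagonist potency measured as reduced agonist-driven arrestin aggregation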
G-protein coupled receptor 55, sequence (Q9Y2T6 whole entry): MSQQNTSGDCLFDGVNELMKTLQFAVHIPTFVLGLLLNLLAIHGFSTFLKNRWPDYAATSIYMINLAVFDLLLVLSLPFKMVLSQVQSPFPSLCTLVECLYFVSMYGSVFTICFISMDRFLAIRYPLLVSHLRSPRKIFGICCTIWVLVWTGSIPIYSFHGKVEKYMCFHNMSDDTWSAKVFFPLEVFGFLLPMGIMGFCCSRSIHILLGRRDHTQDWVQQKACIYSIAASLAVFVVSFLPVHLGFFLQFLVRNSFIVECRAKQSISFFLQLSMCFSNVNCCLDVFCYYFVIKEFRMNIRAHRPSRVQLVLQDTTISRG

[9] = toxicity toward HepG2 liver cells – cell-based, plate reader, cherry-pick, antagonist series, cytotoxicity control, dose response (AID 743416); format: functional
[10] = target: SWI/SNF-related matrix-associated actin-dependent regulator of chromatin subfamily A member 2 (Homo sapiens, UniProt P51531); experiment: Luminescence-based cell-based high throughput dose response assay to identify activators of the function of SWI/SNF related, matrix associated, actin dependent regulator of chromatin, subfamily a, member 2 (SMARCA2, BRM).; format: functional
SWI/SNF-related matrix-associated actin-dependent regulator of chromatin subfamily A member 2, sequence (P51531 whole entry): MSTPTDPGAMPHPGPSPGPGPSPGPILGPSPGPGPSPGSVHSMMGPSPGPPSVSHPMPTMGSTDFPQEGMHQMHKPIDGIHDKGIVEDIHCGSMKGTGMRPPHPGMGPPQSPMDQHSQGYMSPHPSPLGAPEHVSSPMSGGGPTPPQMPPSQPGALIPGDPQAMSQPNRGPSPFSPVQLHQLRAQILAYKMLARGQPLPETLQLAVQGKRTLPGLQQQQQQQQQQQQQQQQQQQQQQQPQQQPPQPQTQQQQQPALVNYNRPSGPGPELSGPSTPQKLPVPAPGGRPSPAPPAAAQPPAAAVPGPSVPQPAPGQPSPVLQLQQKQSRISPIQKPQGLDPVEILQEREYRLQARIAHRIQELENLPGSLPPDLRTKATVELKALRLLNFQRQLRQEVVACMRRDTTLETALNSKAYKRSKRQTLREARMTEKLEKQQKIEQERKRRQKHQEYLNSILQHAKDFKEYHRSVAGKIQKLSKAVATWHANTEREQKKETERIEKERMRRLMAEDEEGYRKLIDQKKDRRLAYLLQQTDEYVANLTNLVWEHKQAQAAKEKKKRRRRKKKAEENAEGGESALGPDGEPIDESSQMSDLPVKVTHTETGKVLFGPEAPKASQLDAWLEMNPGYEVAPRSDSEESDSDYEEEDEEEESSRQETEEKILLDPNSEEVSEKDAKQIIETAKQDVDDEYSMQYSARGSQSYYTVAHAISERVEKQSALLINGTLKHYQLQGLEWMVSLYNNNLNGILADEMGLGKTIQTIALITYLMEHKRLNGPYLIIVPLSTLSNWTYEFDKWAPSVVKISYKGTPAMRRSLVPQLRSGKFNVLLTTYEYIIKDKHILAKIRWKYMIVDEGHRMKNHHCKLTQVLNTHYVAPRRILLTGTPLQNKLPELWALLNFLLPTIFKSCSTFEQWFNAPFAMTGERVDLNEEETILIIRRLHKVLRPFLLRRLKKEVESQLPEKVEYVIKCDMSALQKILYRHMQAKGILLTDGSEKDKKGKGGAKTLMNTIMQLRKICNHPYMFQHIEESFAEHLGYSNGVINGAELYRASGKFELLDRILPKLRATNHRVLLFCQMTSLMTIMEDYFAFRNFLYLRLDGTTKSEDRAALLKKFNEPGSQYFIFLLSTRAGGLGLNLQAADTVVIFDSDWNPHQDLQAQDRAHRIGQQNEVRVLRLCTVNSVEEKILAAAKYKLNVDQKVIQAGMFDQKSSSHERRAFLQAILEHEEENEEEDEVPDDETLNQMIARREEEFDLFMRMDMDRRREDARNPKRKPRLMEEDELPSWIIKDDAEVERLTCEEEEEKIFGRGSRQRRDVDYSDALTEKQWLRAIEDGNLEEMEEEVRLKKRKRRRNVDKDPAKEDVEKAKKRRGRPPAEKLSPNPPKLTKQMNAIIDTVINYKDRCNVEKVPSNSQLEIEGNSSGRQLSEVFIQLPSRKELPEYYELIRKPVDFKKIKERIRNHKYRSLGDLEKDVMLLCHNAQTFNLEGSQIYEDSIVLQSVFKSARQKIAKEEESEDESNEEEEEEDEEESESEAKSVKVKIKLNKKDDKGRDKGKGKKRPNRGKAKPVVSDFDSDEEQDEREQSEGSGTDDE

[11] = Counterscreen for activators of the function of SWI/SNF related, matrix associated, actin dependent regulator of chromatin, subfamily a, member 2 (SMARCA2, BRM): Luminescence-based cell-based high throughput dose response assay to identify non-selective compounds using the VP16 reporter assay.; format: functional
Melanocortin receptor 4 = Melanocortin receptor 4 (Homo sapiens, UniProt P32245); format: functional, cell-based;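 note: Cell-based assay with luminescence read-out, confirmatory dose-response testing for agonist activity of biased ligands at MC4R; human U2OS cells with tagged receptor and beta-arrestin; potency of agonists that increase receptor coupling to beta-arrestin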
Melanocortin receptor 4, sequence (P32245 whole entry): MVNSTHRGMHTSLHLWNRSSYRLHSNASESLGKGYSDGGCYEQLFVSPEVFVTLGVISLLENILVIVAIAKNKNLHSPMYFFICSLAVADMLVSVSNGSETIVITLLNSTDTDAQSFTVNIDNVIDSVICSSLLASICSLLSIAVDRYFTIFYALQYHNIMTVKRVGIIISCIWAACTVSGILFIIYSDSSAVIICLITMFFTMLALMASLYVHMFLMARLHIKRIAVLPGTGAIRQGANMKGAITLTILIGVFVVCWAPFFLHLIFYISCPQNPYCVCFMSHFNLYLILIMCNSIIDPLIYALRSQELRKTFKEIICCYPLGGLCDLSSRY

[12] = THP-1 cell cytotoxicity, dose response, cytotoxicity control for non-replicating M. tuberculosis project (AID 489025); format: functional
[13] = loss of viability in HepG2 cells – cell-based, CellTiter-Glo, cherry-picked, cytotoxicity control for Shn3 inhibitor project, dose response (AID 624134); format: functional
cells [14] = format: functional
[15] = HepG2 cell cytotoxicity, dose response, cytotoxicity control for non-replicating M. tuberculosis project (AID 489018); format: functional; details: Mycobacterium tuberculosis
Nonstructural protein 1 = Nonstructural protein 1 (Influenza A virus, UniProt Q194T2); format: functional, Influenza A virus (A/California/07/2009(H1N1))
Nonstructural protein 1, sequence (Q194T2 whole entry): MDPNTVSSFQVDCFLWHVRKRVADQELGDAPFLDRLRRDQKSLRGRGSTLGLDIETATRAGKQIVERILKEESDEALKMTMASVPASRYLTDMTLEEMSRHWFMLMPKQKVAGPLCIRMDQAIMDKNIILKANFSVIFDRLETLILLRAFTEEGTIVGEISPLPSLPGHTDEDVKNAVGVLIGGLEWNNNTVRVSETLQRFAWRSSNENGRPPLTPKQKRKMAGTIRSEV

[16] = target: T2, Ubiquitin-conjugating enzyme E2 N (Homo sapiens, UniProt P61088); format: functional;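 note: Dose-response confirmation in a TR-FRET assay detecting UBC13-driven polyubiquitin chain formation, inhibition measured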
T2 sequence (P61088 whole entry): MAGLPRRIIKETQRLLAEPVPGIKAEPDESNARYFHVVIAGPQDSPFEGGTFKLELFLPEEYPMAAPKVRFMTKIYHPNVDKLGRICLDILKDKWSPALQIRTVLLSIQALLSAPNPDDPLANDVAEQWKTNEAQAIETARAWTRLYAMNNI

[17] = reduction of Shn3 3'UTR-driven luciferase in osteoblasts – cell-based, Clone20 osteoblasts, firefly luciferase, cherry-picked, dose response (AID 624132); format: functional;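 note: firefly luciferase luminescence from reporter carrying the Shn3 3'UTR in osteoblasts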
[18] = Vero E6 cell cytotoxicity, dose response, cytotoxicity control for non-replicating M. tuberculosis project, secondary assay (AID 492998); format: functional, VeroE6; details: Vero C1008
Estrogen receptor beta [19] = target: T3, Estrogen receptor beta (Homo sapiens, UniProt Q92731); experiment: blockers of SRC-3 recruitment to ERβ – biochemical, ELISA, streptavidin-HRP readout, orthogonal assay, confirmation (AID 1060)
T3 sequence (Q92731 whole entry): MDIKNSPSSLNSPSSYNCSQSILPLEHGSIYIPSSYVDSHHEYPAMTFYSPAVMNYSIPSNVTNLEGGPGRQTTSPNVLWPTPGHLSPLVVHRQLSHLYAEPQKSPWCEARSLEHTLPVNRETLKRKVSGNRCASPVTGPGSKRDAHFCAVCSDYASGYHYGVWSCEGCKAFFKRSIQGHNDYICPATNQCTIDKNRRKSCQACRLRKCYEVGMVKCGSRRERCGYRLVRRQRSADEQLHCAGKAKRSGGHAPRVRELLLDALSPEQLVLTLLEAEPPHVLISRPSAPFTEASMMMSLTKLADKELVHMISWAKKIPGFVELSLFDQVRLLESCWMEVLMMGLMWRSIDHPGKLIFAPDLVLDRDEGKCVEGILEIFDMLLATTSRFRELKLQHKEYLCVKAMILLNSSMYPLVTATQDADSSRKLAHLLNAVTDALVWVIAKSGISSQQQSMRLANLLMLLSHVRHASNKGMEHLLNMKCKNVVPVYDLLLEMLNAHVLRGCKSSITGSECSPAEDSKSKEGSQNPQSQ

Estrogen receptor beta [20] = target: T3, Estrogen receptor beta

## O=C(c1ccccc1)N1CCCC(c2nc(O)c3nnn(Cc4ccccc4)c3n2)C1 (configuration not stated)
Coagulation factor XII
  IC50: > 50 µM (inactive)

## CN(c1ccc(C(=O)Nc2nccs2)cc1)S(=O)(=O)c1ccccc1
[1]
  IC50: 46.9 µM (not active)

## CCN(C[C@@H]1N[C@@H](CO)[C@H]1c1ccc(-c2cccc(F)c2)cc1)C(=O)CN(C)C
[2]
  AC50: 25.7 µM (active)
[3]
  AC50: 13 µM (active)

## Cc1c(C#N)c(O)n(CCO)c(=O)c1CN1CCCC(C)C1 (configuration not stated)
Cells [4]
  EC50: > 29.9 µM (inactive)
Cells [5]
  IC50: > 29.9 µM (inactive)

## COC(=O)c1[nH]c2ccc(C)cc2c1NC(=O)Nc1ccccc1OC
[6]
  IC50: > 80 µM (inactive)

## CS(=O)(=O)N1CCN(c2ccccc2NC(=O)CSc2ccc(Cl)cc2)CC1
[1]
  IC50: 90.5 µM (not active)
[7]
  EC50: 7.39 µM (active)

## CCc1ccc(C(=O)NC(=S)Nc2ccccc2N2CCOCC2)cc1
[8]
  IC50: 1.2 µM (active)

## N#C[C@H]1[C@@H](c2ccc(C3=CCCCC3)cc2)[C@H](CO)N1C(=O)c1ccccn1
[9]
  AC50: 34.2 µM (active)

## Cc1nccc(-c2cc(-c3ccc(Cl)cc3Cl)no2)n1
[10]
  EC50: > 91.2 µM (inactive)
[11]
  EC50: > 91.2 µM (inactive)

## COc1cccc(CNC(=O)COC(=O)c2nc(Cl)c(Cl)c(Cl)c2Cl)c1
[10]
  EC50: > 91.2 µM (inactive)
[11]
  EC50: > 91.2 µM (inactive)

## CCc1ccc(OCCNc2cc(N3CCNC(C)C3)ccc2[N+](=O)[O-])cc1 (configuration not stated)
Melanocortin receptor 4
  EC50: > 89.2 µM (inactive)
[12]
  CC50: 12.4 µM (active)
[13]
  AC50: 7.97 µM (active)
Cells [14]
  IC50: 24 µM (active)
[15]
  CC50: 12.4 µM (active)
Nonstructural protein 1
  IC50: 37.4 µM (active)
[16]
  IC50: > 20 µM (inactive)
[17]
  AC50: 15.6 µM (active)
[18]
  CC50: 13.9 µM (active)

## CC(C)(C)OC(=O)N1CCN(c2ccc(NC(=O)Cn3nnc(-c4ccccc4)n3)cc2)CC1
Estrogen receptor beta [19]
  IC50: 2.7 µM (not active)
Estrogen receptor beta [20]
  IC50: 6.06 µM (active)

## CC(=O)c1cccc(S(=O)(=O)NCC2CCCCC2)c1
[3]
  AC50: 5.36 µM (active)
